Measured values taken from ChEMBL document CHEMBL1134932, “Bridged bicyclic vasopressin receptor antagonists with V(2)-selective or dual V(1a)/V(2) activity” (Bioorg Med Chem Lett, 2002).
Each block holds one compound with its values, some of them ahead of it.

Key:
Vasopressin V2 receptor [1] = biological target: T1, Vasopressin V2 receptor (Homo sapiens, UniProt P30518); test: Inhibition of AVP mediated activation of human vasopressin V2 receptor expressed in HEK293 cells; assay type: cell-based
Vasopressin V1a receptor [2] = biological target: T2, Vasopressin V1a receptor (Homo sapiens, UniProt P37288); test: Inhibition of AVP mediated activation of human vasopressin V1a receptor expressed in HEK293 cells; assay type: cell-based
Target sequence in this assay (P37288 whole entry): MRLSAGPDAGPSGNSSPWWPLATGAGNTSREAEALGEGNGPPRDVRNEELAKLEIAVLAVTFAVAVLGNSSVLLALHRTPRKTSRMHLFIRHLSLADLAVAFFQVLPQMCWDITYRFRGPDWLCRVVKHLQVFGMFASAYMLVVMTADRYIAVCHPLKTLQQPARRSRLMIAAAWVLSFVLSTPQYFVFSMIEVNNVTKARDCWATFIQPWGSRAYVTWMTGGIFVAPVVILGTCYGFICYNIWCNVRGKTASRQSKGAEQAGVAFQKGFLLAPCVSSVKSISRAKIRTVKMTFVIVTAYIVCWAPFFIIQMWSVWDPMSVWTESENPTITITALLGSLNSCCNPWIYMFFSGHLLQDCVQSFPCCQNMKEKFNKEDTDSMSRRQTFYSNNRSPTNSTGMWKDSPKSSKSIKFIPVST

Vasopressin V1a receptor [3] = biological target: T2, Vasopressin V1a receptor; test: Inhibition of [3H]Arg-vasopressin binding to recombinant human vasopressin V1a receptor
Target sequence in this assay (P37288 whole entry): as above

Vasopressin V2 receptor [4] = biological target: T1, Vasopressin V2 receptor; test: Inhibition of [3H]Arg-vasopressin binding to recombinant human vasopressin V2 receptor
Rattus norvegicus [5] = test: Effective dose for reversal of AVP-Induced Hypertension in pentobarbital-anesthetized male Long-Evans rats.; assay type: functional
Vasopressin V1a receptor [6] = biological target: T2, Vasopressin V1a receptor; test: Inhibition of [3H]Arg-vasopressin binding to recombinant human vasopressin V1a receptor at 0.1 uM
Target sequence in this assay (P37288 whole entry, looked up): as the sequence (P37288 whole entry) above

Rattus norvegicus [7] = test: The diuretic effect in 10 male Sprague-Dawley rats after 4 hrs at a dose of 10 mg/kg by oral route; assay type: functional, Urine
Rattus norvegicus [8] = test: Excretion of potassium at a dose of 1 mg/kg in male Sprague-Dawley rats; assay type: functional
Rattus norvegicus [9] = test: The diuretic effect in 10 male Sprague-Dawley rats after 4 hrs at a dose of 1 mg/kg by oral route; assay type: functional, Urine
[10] = Half life tested in mature male rat at a dose of 30 mg/kg; assay type: ADME, organism-based; set-up: dose 30 mg/kg; conditions: in vivo
Rattus norvegicus [11] = test: Excretion of potassium at a dose of 10 mg/kg in male Sprague-Dawley rats; assay type: functional
Cytochrome P450 2C9 = Cytochrome P450 2C9 (Homo sapiens, UniProt P11712); test: Inhibition of cytochrome P450 2C9; assay type: ADME
Rattus norvegicus [12] = test: The diuretic effect in 10 male Sprague-Dawley rats after 4 hrs at a dose of 3 mg/kg by oral route; assay type: functional, Urine
Rattus norvegicus [13] = test: Excretion of sodium at a dose of 1 mg/kg in male Sprague-Dawley rats; assay type: functional
Rattus norvegicus [14] = test: The clearance rate in mature male rat at a intravenous dose of 3 mg/kg; assay type: ADME, organism-based; set-up: dose 3 mg/kg, route intravenous; conditions: in vivo
Rattus norvegicus [15] = test: Excretion of Creatinine at a dose of 10 mg/kg in male Sprague-Dawley rats; assay type: functional
Rattus norvegicus [16] = test: Excretion of potassium at a dose of 3 mg/kg in male Sprague-Dawley rats; assay type: functional
Rattus norvegicus [17] = test: Excretion of sodium at a dose of 10 mg/kg in male Sprague-Dawley rats; assay type: functional
Rattus norvegicus [18] = test: Excretion of Creatinine at a dose of 1 mg/kg in male Sprague-Dawley rats; assay type: functional
[19] = Oral bioavailability in rat (mature male) (dose 30 mg/kg); assay type: ADME, organism-based; conditions: in vivo
Rattus norvegicus [20] = test: Excretion of sodium at a dose of 3 mg/kg in male Sprague-Dawley rats; assay type: functional
[21] = The maximum plasma levels for the compounds were determined by LC-MS.; assay type: ADME, organism-based; conditions: rat
Rattus norvegicus [22] = test: Excretion of Creatinine at a dose of 3 mg/kg in male Sprague-Dawley rats; assay type: functional
Rattus norvegicus [23] = test: The Urine osmolality in 10 male Sprague-Dawley rats after 4 hrs at a dose of 1 mg/kg by oral route; assay type: functional
Rattus norvegicus [24] = test: The Urine osmolality in 10 male Sprague-Dawley rats after 4 hrs at a dose of 3 mg/kg by oral route; assay type: functional
Rattus norvegicus [25] = test: The Urine osmolality in 10 male Sprague-Dawley rats after 4 hrs at a dose of 10 mg/kg by oral route; assay type: functional
Rattus norvegicus [26] = test: The Urine osmolality in 9 male Sprague-Dawley rats after 4 hrs at a dose of 0.3 mg/kg by oral route; assay type: functional
Rattus norvegicus [27] = test: The diuretic effect in 9 male Sprague-Dawley rats after 4 hrs at a dose of 0.3 mg/kg by oral route; assay type: functional, Urine

T1 sequence (P30518 whole entry): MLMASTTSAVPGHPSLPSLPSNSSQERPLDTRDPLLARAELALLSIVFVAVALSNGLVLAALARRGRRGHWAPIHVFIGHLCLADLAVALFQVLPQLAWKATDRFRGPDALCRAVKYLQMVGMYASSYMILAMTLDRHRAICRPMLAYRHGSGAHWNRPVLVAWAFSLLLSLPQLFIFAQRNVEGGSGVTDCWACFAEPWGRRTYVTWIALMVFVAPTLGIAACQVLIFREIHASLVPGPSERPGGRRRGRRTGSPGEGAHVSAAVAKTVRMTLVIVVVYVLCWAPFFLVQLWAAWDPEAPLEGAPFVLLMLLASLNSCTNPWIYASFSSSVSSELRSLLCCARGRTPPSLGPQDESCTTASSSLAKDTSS
Chain of Cytochrome P450 2C9 (P11712 whole entry): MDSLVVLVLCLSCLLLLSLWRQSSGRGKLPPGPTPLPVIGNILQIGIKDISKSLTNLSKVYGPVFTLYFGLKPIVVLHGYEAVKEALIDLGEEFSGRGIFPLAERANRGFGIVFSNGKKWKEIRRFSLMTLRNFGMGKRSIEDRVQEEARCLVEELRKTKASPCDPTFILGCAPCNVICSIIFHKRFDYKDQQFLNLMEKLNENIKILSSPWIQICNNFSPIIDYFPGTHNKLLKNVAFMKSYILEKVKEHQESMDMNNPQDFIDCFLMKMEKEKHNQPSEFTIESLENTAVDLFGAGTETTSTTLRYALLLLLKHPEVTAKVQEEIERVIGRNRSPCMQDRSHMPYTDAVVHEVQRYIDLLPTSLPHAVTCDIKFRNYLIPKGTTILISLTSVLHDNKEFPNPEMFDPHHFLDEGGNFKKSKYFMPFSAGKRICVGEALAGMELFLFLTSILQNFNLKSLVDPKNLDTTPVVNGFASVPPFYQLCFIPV

Compound: O=C(Nc1ccc(C(=O)N2C[C@@H]3C4CCC(C4)N3Cc3cc(Cl)ccc32)cc1)c1ccccc1Cl (some centres undefined)
- Ki (Vasopressin V2 receptor [1]): 32 nM
- Ki (Vasopressin V1a receptor [2]): 130 nM
- IC50 (Vasopressin V1a receptor [3]): 5 nM
- IC50 (Vasopressin V2 receptor [4]): 10 nM

- Ki (Vasopressin V2 receptor [1]): 9 nM
- Ki (Vasopressin V1a receptor [2]): 40 nM
- IC50 (Vasopressin V1a receptor [3]): 4 nM
- IC50 (Vasopressin V2 receptor [4]): 7 nM
Compound: O=C(Nc1ccc(C(=O)N2C[C@@H]3C4CCC(C4)N3Cc3cc(Cl)ccc32)cc1)c1ccccc1C(F)(F)F (some centres undefined)
- ED50 (Rattus norvegicus [5]): 0.38 mg/kg

- inhibition (Vasopressin V1a receptor [6]): 15%
- IC50 (Vasopressin V2 receptor [4]): 19 nM
Compound: Cc1cc(F)cc(C(=O)Nc2ccc(C(=O)N3C[C@@H]4C5CCC(CC5)N4Cc4ccccc43)c(Cl)c2)c1

Compound: Cc1ccc(-c2ccccc2C(=O)Nc2ccc(C(=O)N3C[C@@H]4C5CCC(C5)N4Cc4cc(Cl)ccc43)cc2)cc1 (some centres undefined)
- Urine volume (Rattus norvegicus [7]): 17.8 mL
- Excretion (Rattus norvegicus [8]): 0.3 m equiv 4hr-1
- Urine volume (Rattus norvegicus [9]): 2.9 mL
- Ki (Vasopressin V2 receptor [1]): 13 nM
- half-life [10]: 2.5 h
- Excretion (Rattus norvegicus [11]): 0.64 m equiv 4hr-1
- IC50 (Cytochrome P450 2C9): 7400 nM
- Ki (Vasopressin V1a receptor [2]): 23 nM
- Urine volume (Rattus norvegicus [12]): 5.8 mL
- Excretion (Rattus norvegicus [13]): 0.07 m equiv 4hr-1
- Clearance (Rattus norvegicus [14]): 2.1 mg/kg/µM/h
- Excretion (Rattus norvegicus [15]): 7.7 mg/dL
- Excretion (Rattus norvegicus [16]): 0.34 m equiv 4hr-1
- Excretion (Rattus norvegicus [17]): 0.52 m equiv 4hr-1
- Excretion (Rattus norvegicus [18]): 31.4 mg/dL
- bioavailability [19]: 7%
- Excretion (Rattus norvegicus [20]): 0.16 m equiv 4hr-1
- Cmax [21]: 320 nM
- Excretion (Rattus norvegicus [22]): 16.2 mg/dL
- Urine osmolality (Rattus norvegicus [23]): 387 mOsmol kg-1
- Urine osmolality (Rattus norvegicus [24]): 226 mOsmol kg-1
- Urine osmolality (Rattus norvegicus [25]): 159 mOsmol kg-1
- ED50 (Rattus norvegicus [5]): 0.0074 mg/kg

Compound: O=C(Nc1ccc(C(=O)N2C[C@H]3C4CCC(C4)N3Cc3ccccc32)c(Cl)c1)c1ccccc1-c1ccccc1 (some centres undefined)
- Urine volume (Rattus norvegicus [7]): 19.5 mL
- Urine volume (Rattus norvegicus [9]): 3.4 mL
- Ki (Vasopressin V2 receptor [1]): 30 nM
- half-life [10]: 2.5 h
- Urine volume (Rattus norvegicus [12]): 9.4 mL
- Clearance (Rattus norvegicus [14]): 3.3 mg/kg/µM/h
- inhibition (Vasopressin V1a receptor [6]): 7%
- bioavailability [19]: 10%
- Urine osmolality (Rattus norvegicus [26]): 408 mOsmol kg-1
- Urine volume (Rattus norvegicus [27]): 1.4 mL
- Cmax [21]: 230 nM
- Urine osmolality (Rattus norvegicus [23]): 303 mOsmol kg-1
- Urine osmolality (Rattus norvegicus [24]): 238 mOsmol kg-1
- Urine osmolality (Rattus norvegicus [25]): 172 mOsmol kg-1

Compound: O=C(Nc1ccc(C(=O)N2C[C@@H]3C4CCC(C4)N3Cc3ccccc32)c(Cl)c1)c1ccccc1-c1ccccc1 (some centres undefined)
- Urine volume (Rattus norvegicus [7]): 29.9 mL
- Urine volume (Rattus norvegicus [9]): 6 mL
- Ki (Vasopressin V2 receptor [1]): 9 nM
- half-life [10]: 5 h
- Ki (Vasopressin V1a receptor [2]): 130 nM
- Urine volume (Rattus norvegicus [12]): 15.1 mL
- Clearance (Rattus norvegicus [14]): 1.2 mg/kg/µM/h
- bioavailability [19]: 14%
- Urine osmolality (Rattus norvegicus [26]): 444 mOsmol kg-1
- Urine volume (Rattus norvegicus [27]): 2.5 mL
- Cmax [21]: 650 nM
- Urine osmolality (Rattus norvegicus [23]): 299 mOsmol kg-1
- Urine osmolality (Rattus norvegicus [24]): 180 mOsmol kg-1
- Urine osmolality (Rattus norvegicus [25]): 138 mOsmol kg-1
- ED50 (Rattus norvegicus [5]): 0.217 mg/kg

- IC50 (Vasopressin V1a receptor [3]): ~100 nM
Compound: O=C(Nc1ccc(C(=O)N2CC3C4CCC(CC4)N3Cc3ccccc32)cc1)c1ccccc1-c1ccccc1 (centres undefined)

Compound: O=C(Nc1ccc(C(=O)N2C[C@@H]3C4CCC(C4)N3Cc3cc(Cl)ccc32)cc1)c1ccccc1F (some centres undefined)
- Ki (Vasopressin V2 receptor [1]): 180 nM
- Ki (Vasopressin V1a receptor [2]): 2600 nM
- IC50 (Vasopressin V1a receptor [3]): 68 nM
- IC50 (Vasopressin V2 receptor [4]): 26 nM

- Ki (Vasopressin V2 receptor [1]): 90 nM
- IC50 (Vasopressin V1a receptor [3]): 150 nM
- IC50 (Vasopressin V2 receptor [4]): 5 nM
Compound: Cc1ccc(F)cc1C(=O)Nc1ccc(C(=O)N2Cc3cccn3Cc3ccccc32)c(Cl)c1 [LIXIVAPTAN]

Compound: Cc1ccc(-c2ccccc2C(=O)Nc2ccc(C(=O)N3C[C@@H]4C5CCC(C5)N4Cc4cc(Cl)ccc43)c(Cl)c2)cc1 (some centres undefined)
- IC50 (Vasopressin V1a receptor [3]): 35 nM
- IC50 (Vasopressin V2 receptor [4]): 30 nM

- Ki (Vasopressin V2 receptor [1]): 520 nM
- Ki (Vasopressin V1a receptor [2]): 620 nM
- IC50 (Vasopressin V1a receptor [3]): 35 nM
- IC50 (Vasopressin V2 receptor [4]): 13 nM
Compound: O=C(Nc1ccc(C(=O)N2C[C@@H]3C4CCC(CC4)N3Cc3cc(Cl)ccc32)cc1)c1ccccc1Cl

- inhibition (Vasopressin V1a receptor [6]): 30%
- IC50 (Vasopressin V2 receptor [4]): 4 nM
Compound: O=C(Nc1ccc(C(=O)N2CC3C4CCC(CC4)N3Cc3ccccc32)c(Cl)c1)c1ccccc1-c1ccccc1 (centres undefined)
